Holding throughout (assay type): in vivo
In assay [1] the test system is damping-off fungus (Rhizoctonia solani). The assay is described as follows: Test Example 23: soybean seed treatment, damping-off control in pots. To be noted: soybean seeds, 20 days after.
The test system of assay [2] is damping-off fungus (Pythium spp.). Nature of the assay: Test Example 22: soybean seed treatment, damping-off control in pots. The following applies: soybean seeds, 20 days after. Here is the method:
If the effect by the combination of two active ingredients is greater than that of the estimated value E, which is calculated by the Colby's equation as follows, the effect is regarded as synergistic. E=X+Y-X·Y/100 wherein, E=Control value when using the mixture of the active ingredients A and B at the concentrations m and n (amount of the active ingredient), respectively. X=Control value when using the active ingredient A at the concentration m (amount of the active ingredient). Y=Control value when using the active ingredient B at the concentration n (amount of the active ingredient). […] Corporation) and metalaxyl flowable formulation (30.14% flowable formulation, trade name: […] Cultivation was carried out in a greenhouse under irrigation. Also, similar procedures were conducted using untreated soybean seeds, instead of the treated soybean seeds, as described above for the treated compartment (“untreated compartment”). […] Disease incidence (%)=100×(number of diseased plant/total number of seeded seeds): […]

For assay [3] the test system is unchanged. The assay is described as follows: Test Example 21: corn seed treatment, damping-off control in pots. The following applies: corn seeds, 20 days after. The protocol: In a rotary seed treatment machine (trade name: HEGE11, manufactured by WINTERSTEIGER), corn seeds (variety: yellow dent corn) were treated by smearing treatment using a flowable formulation of the present bacterial strain as obtained in Formulation Example 13 and ethaboxam flowable formulation (34.6% flowable formulation, Valent U.S.A. Corporation), so that the […] retain the present bacterial strain and/or the compound in the amount shown in Table 6.
Cultivation was carried out in a greenhouse under irrigation. Also, similar procedures were conducted using untreated corn seeds, instead of the treated corn seeds, as described above for the treated compartment (“untreated compartment”). The plants were investigated 20 days after for the number of diseased plants, and the disease incidence was calculated by the following “Equation 1”. The control value of the treated compartment was calculated by the following equation “Equation 2”, based on the disease incidences of the treated compartment and the untreated compartment.
Disease incidence (%)=100×(number of diseased plant/total number of seeded seeds): Equation 1
Control value (%)=100×[(disease incidence in […] in treated compartment)/disease incidence in untreated compartment]: Equation 2
If the effect by the combination of two active ingredients is greater than that of the estimated value E, which is calculated by the Colby's equation as follows, the effect is regarded as synergistic.
wherein, E=Control value when using the mixture of the active ingredients A and B at the concentrations m and n (amount of the active ingredient), respectively. X=Control value when using the active ingredient A at the concentration m (amount of the active ingredient). Y=Control value when using the active ingredient B at the concentration n (amount of the active ingredient).

Structures are written as SMILES.

Turning to `CC1CC(C)(C)c2cccc(NC(=O)c3cn(C)nc3C(F)F)c21` (racemic) [The Carboxamide Compound (1)], the results for the “Control Value” in assay [1] (carboxamide compound (1) 0.0004 g/kg seeds), in assay [1] (carboxamide compound (1) 0.002 g/kg seeds) and in assay [1] (carboxamide compound (1) 0.01 g/kg seeds) were 40.0%, 54.3% and 65.7%, respectively.

As to `COCC(=O)N(c1c(C)cccc1C)C(C)C(=O)OC` (stereo not drawn) [Metalaxyl, metalaxyl], the “Control Value” in assay [2] (metalaxyl 0.01 g/kg seeds) was 40.6%; in assay [2] (metalaxyl 0.04 g/kg seeds) it was 50.0%; in assay [2] (metalaxyl 0.16 g/kg seeds) it was 59.4%.

Take `N#Cc1c[nH]cc1-c1cccc2c1OC(F)(F)O2` [Fludioxonil, fludioxonil]: the “Control Value” in assay [1] (fludioxonil 0.004 g/kg seeds) was 25.7%; in assay [1] (fludioxonil 0.02 g/kg seeds) it was 37.1%; in assay [1] (fludioxonil 0.1 g/kg seeds) it was 48.6%.

Regarding `COP(=S)(OC)Oc1c(Cl)cc(C)cc1Cl` [Tolclofos-Methyl, tolclofos-methyl], the “Control Value” in assay [1] (tolclofos-methyl 0.01 g/kg seeds) came out at 11.4%; in assay [1] (tolclofos-methyl 0.05 g/kg seeds) it was 28.6%; in assay [1] (tolclofos-methyl 0.25 g/kg seeds) it was 42.8%.

Turning to `CCNc1nc(CC)c(C(=O)NC(C#N)c2cccs2)s1` (stereo not drawn) [Ethaboxam, ethaboxam], the “Control Value” in assay [3] (ethaboxam 0.00625 g/kg seeds) came out at 19.4%; in assay [3] (ethaboxam 0.025 g/kg seeds) it was 32.3%; in assay [3] (ethaboxam 0.1 g/kg seeds) it was 48.4%; in assay [2] (ethaboxam 0.075 g/kg seeds) it was 46.9%; in assay [2] (ethaboxam 0.15 g/kg seeds), 56.2%; in assay [2] (ethaboxam 0.3 g/kg seeds), 62.5%.

Source of the values: patent US20180213795A1, “PLANT DISEASE CONTROL COMPOSITION AND PLANT DISEASE CONTROL METHOD” (SUMITOMO CHEMICAL COMPANY, LIMITED, priority 2015, published 2018).
